Measured values: patent publication US6737383B1, “Herbicidal oxadiazolidines” (priority 1999, dated 2004)

How the values were obtained:
[1] = test system: rape; experiment: Test B pre/postemergence rape; format: in vivo, Brassica napus
Summary of the method: (§1)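 Test chemicals in a non-phytotoxic solvent mixture with surfactant were sprayed preemergence onto planted seeds and postemergence onto plants 2 to 18 cm tall (1- to 4-leaf stage). After twelve to sixteen days in a greenhouse, injury was visually rated against untreated controls from 0 (no effect) to 10 (complete control).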

[2] = test system: giant foxtail; experiment: Test B pre/postemergence giant foxtail; format: in vivo, Setaria faberii
Summary of the method: as §1

[3] = test system: corn; experiment: Test B pre/postemergence corn; format: in vivo, Zea mays
Summary of the method: as §1

[4] = test system: velvetleaf; experiment: Test B pre/postemergence velvetleaf; format: in vivo, Abutilon theophrasti
Summary of the method: as §1

[5] = test system: sugar beet; experiment: Test B pre/postemergence sugar beet; format: in vivo, Beta vulgaris
Summary of the method: as §1

[6] = test system: wild oat; experiment: Test B pre/postemergence wild oat; format: in vivo, Avena fatua
Summary of the method: as §1

[7] = test system: purple nutsedge; experiment: Test B pre/postemergence purple nutsedge; format: in vivo, Cyperus rotundus
Summary of the method: as §1

[8] = test system: soybean; experiment: Test B pre/postemergence soybean; format: in vivo, Glycine max
Summary of the method: as §1

[9] = test system: cocklebur; experiment: Test B pre/postemergence cocklebur; format: in vivo, Xanthium strumarium
Summary of the method: as §1

[10] = test system: wheat; experiment: Test B pre/postemergence wheat; format: in vivo, Triticum aestivum
Summary of the method: as §1

[11] = test system: blackgrass; experiment: Test B pre/postemergence blackgrass; format: in vivo, Alopecurus myosuroides
Summary of the method: as §1

[12] = test system: surinam grass; experiment: Test B pre/postemergence surinam grass; format: in vivo, Brachiaria decumbens
Summary of the method: as §1

[13] = test system: crabgrass; experiment: Test B pre/postemergence crabgrass; format: in vivo, Digitaria sanguinalis
Summary of the method: as §1

[14] = test system: bedstraw; experiment: Test B pre/postemergence bedstraw; format: in vivo, Galium aparine
Summary of the method: as §1

[15] = test system: morningglory; experiment: Test B pre/postemergence morningglory; format: in vivo, Ipomoea hederacea
Summary of the method: as §1

[16] = test system: pigweed; experiment: Test B pre/postemergence pigweed; format: in vivo, Amaranthus retroflexus
Summary of the method: as §1

[17] = Postemergence, Rate 62 g/ha, scale 0 to 10, 0 is no effect, 10 is complete control
[18] = Postemergence, Rate 125 g/ha, scale of 0 to 10 where 0 is no effect and 10 is complete control
[19] = Preemergence, Rate 125 g/ha, scale of 0 to 10 where 0 is no effect and 10 is complete control
[20] = Preemergence, Rate 250 g/ha, scale 0 (no effect) to 10 (complete control)
[21] = Rate 62 g/ha, Preemergence, scale 0 to 10
[22] = Rate 250 g/ha, Postemergence, scale 0 to 10, 0 is no effect, 10 is complete control
[23] = Rate 500 g/ha, Postemergence, scale 0 to 10, 0 is no effect, 10 is complete control
[24] = Rate 500 g/ha, Preemergence, scale 0 to 10 (0 no effect, 10 complete control)

Cc1nc(C(C)n2c(=O)on(C(=O)N(c3ccc(F)cc3)C(C)C)c2=O)sc1C (stereo not shown) [Compound 757]
0: Plant response rating, Rape [1, 17] | Rape plant response rating [1, 18] | Plant response rating, Rape [1, 19] | Rape plant response rating [1, 20] | Rape plant response rating [1, 21] | Rape plant response rating [1, 22] | Rape plant response rating [1, 23] | Rape plant response rating [1, 24] | Plant response rating, Corn [3, 17] | Corn plant response rating [3, 18] | Plant response rating, Corn [3, 19] | Corn plant response rating [3, 20] | Corn plant response rating [3, 21] | Corn plant response rating [3, 22] | Corn plant response rating [3, 23] | Corn plant response rating [3, 24] | Plant response rating, Velvetleaf [4, 17] | Plant response rating, Velvetleaf [4, 19] | Velvetleaf plant response rating [4, 20] | Velvetleaf plant response rating [4, 21] | Velvetleaf plant response rating [4, 24] | Plant response rating, Sugarbeets [5, 17] | Plant response rating, Sugarbeets [5, 19] | Sugarbeets plant response rating [5, 20] | Sugarbeets plant response rating [5, 21] | Sugarbeets plant response rating [5, 24] | Plant response rating, Wild oats [6, 17] | Plant response rating, Wild oats [6, 19] | Wild oats plant response rating [6, 21] | Wild oats plant response rating [6, 22] | Wild oats plant response rating [6, 23] | Plant response rating, Nutsedge [7, 17] | Nutsedge plant response rating [7, 18] | Plant response rating, Nutsedge [7, 19] | Nutsedge plant response rating [7, 20] | Nutsedge plant response rating [7, 21] | Nutsedge plant response rating [7, 22] | Nutsedge plant response rating [7, 23] | Nutsedge plant response rating [7, 24] | Plant response rating, Soybean [8, 19] | Soybean plant response rating [8, 20] | Soybean plant response rating [8, 21] | Soybean plant response rating [8, 24] | Plant response rating, Cocklebur [9, 17] | Cocklebur plant response rating [9, 18] | Plant response rating, Cocklebur [9, 19] | Cocklebur plant response rating [9, 20] | Cocklebur plant response rating [9, 21] | Cocklebur plant response rating [9, 24] | Plant response rating, Wheat [10, 17] | Plant response rating, Wheat [10, 19] | Wheat plant response rating [10, 20] | Wheat plant response rating [10, 21] | Wheat plant response rating [10, 22] | Wheat plant response rating [10, 23] | Plant response rating, Blackgrass [11, 17] | Blackgrass plant response rating [11, 18] | Plant response rating, B. signalgrass [12, 17] | B. signalgrass plant response rating [12, 18] | B. signalgrass plant response rating ([12]; Preemergence, Rate 62 g/ha, scale of 0 to 10 where 0 is no effect and 10 is complete control) | Plant response rating, B. signalgrass [12, 19] | B. signalgrass plant response rating [12, 22] | Bedstraw plant response rating [14, 18] | Plant response rating, Bedstraw [14, 19] | Bedstraw plant response rating [14, 20] | Bedstraw plant response rating [14, 21] | Bedstraw plant response rating [14, 22] | Bedstraw plant response rating [14, 24] | Plant response rating, Morningglory [15, 19] | Morningglory plant response rating [15, 20] | Morningglory plant response rating [15, 21] | Morningglory plant response rating [15, 24] | Plant response rating, Redroot pigweed [16, 19] | Redroot pigweed plant response rating [16, 21]
4: Velvetleaf plant response rating [4, 23] | Soybean plant response rating [8, 22] | Soybean plant response rating [8, 23] | Blackgrass plant response rating [11, 23] | Crabgrass plant response rating [13, 18]
5: Giant foxtail plant response rating [2, 22] | Wild oats plant response rating [6, 24] | Redroot pigweed plant response rating [16, 22]
2: Plant response rating, Giant foxtail [2, 17] | Giant foxtail plant response rating [2, 18] | Wild oats plant response rating [6, 20] | Cocklebur plant response rating [9, 22] | Cocklebur plant response rating [9, 23] | Plant response rating, Blackgrass [11, 19] | B. signalgrass plant response rating [12, 20] | Redroot pigweed plant response rating [16, 20]
3: Velvetleaf plant response rating [4, 22] | Sugarbeets plant response rating [5, 22] | Sugarbeets plant response rating [5, 23] | Plant response rating, Soybean [8, 17] | Wheat plant response rating [10, 24] | Blackgrass plant response rating [11, 20] | Blackgrass plant response rating [11, 22] | Plant response rating, Crabgrass [13, 17] | Redroot pigweed plant response rating [16, 18] | Redroot pigweed plant response rating [16, 24]
7: Giant foxtail plant response rating [2, 23] | Blackgrass plant response rating [11, 24] | B. signalgrass plant response rating [12, 24] | Morningglory plant response rating [15, 22] | Redroot pigweed plant response rating [16, 23]
6: Crabgrass plant response rating [13, 21] | Crabgrass plant response rating [13, 22] | Crabgrass plant response rating [13, 23] | Plant response rating, Morningglory [15, 17] | Morningglory plant response rating [15, 18]
1: Blackgrass plant response rating [11, 21] | B. signalgrass plant response rating [12, 23] | Plant response rating, Redroot pigweed [16, 17]
9: Plant response rating, Giant foxtail [2, 19] | Giant foxtail plant response rating [2, 20] | Giant foxtail plant response rating [2, 21] | Giant foxtail plant response rating [2, 24] | Plant response rating, Crabgrass [13, 19] | Crabgrass plant response rating [13, 20] | Crabgrass plant response rating [13, 24] | Morningglory plant response rating [15, 23]
